# Source: patent EP3915971A1, “PHENYL-S(O)N-PHENYLAMIDINES AND THE USE THEREOF AS FUNGICIDES” (Bayer Aktiengesellschaft, priority 2020, dated 2021)
# Test: LogP measurement by HPLC on reversed phase columns (EEC directive 79/831 Annex V.A8)
# Assay type: physicochemical
# Settings: method [a]: LC-UV, acidic range, 0.1% formic acid in water and acetonitrile as eluent (linear gradient 10% to 95% acetonitrile)
# Description: Measurement of LogP values was performed according to EEC directive 79/831 Annex V.A8 by HPLC (High Performance Liquid Chromatography) on reversed phase columns with the following methods: • ^[a] LogP value is determined by measurement of LC-UV, in an acidic range, with 0.1% formic acid in water and acetonitrile as eluent (linear gradient from 10% acetonitrile to 95% acetonitrile). • ^[b] LogP value is determined by measurement of LC-UV, in a neutral range, with 0.001 molar ammonium acetate solution in water and acetonitrile as eluent (linear gradient from 10% acetonitrile to 95% acetonitrile). • ^[c] LogP value is determined by measurement of LC-UV, in an acidic range, with 0.1% phosphoric acid and acetonitrile as eluent (linear gradient from 10% acetonitrile to 95% acetonitrile).
# If more than one LogP value is available within the same method, all the values are given and separated by "+". […]
row,chromatographic logP,Structure (SMILES)
1,0.78,"CCN(C)C=Nc1cc(C)c([S+]([O-])c2ccccc2F)cc1C (centres unmarked) [Example I-011, N-ethyl-N'-[4-(2-fluorophenyl)sul6nyl-2,5-dimethylphenyl]-N-methylmethanimidamide]"

# Same assay, conditions: reversed phase HPLC columns, method [a]: LC-UV, acidic range, 0.1% formic acid in water and acetonitrile as eluent (linear gradient 10% to 95% acetonitrile)
row,Structure (SMILES),chromatographic logP
1,"CCN(C)C=Nc1cc(C)c(S(=O)(=O)c2ccccc2)cc1C [Example I-004, N'-[4-(benzenesulfonyl)-2,5-dimethylphenyl]-N-ethyl-N-methylmethanimidamide]",1
2,"CCN(C)C=Nc1cc(C)c([S+]([O-])c2ccccc2C)cc1Cl (centres unmarked) [Example I-012, N'-[2-chloro-5-methyl-4-(2-methylphenyl)sulfinylphenyl]-N-ethyl-N-methylmethanimidamide]",0.97
3,"CCN(C)C=Nc1cc(C)c([S+]([O-])c2ccccc2Cl)cc1Cl (centres unmarked) [Example I-013, N'-[2-chloro-4-(2-chlorophenyl)sulfinyl-5-methylphenyl]-N-ethyl-N-methylmethanimidamide]",1.15
4,"CCN(C)C=Nc1cc(C)c(S(=O)(=O)c2ccccc2C)cc1Cl [Example I-015, N'-[2-chloro-5-methyl-4-(2-methylphenyl)sulfonylphenyl]-N-ethyl-N-methylmethanimidamide]",1.69
5,"CCN(C)C=Nc1cc(C)c(S(=O)(=O)c2ccccc2C)cc1C [Example I-016, N'-[2,5-dimethyl-4-(2-methylphenyl)sulfonylphenyl]-N-ethyl-N-methylmethanimidamide]",1.18
6,"CCN(C)C=Nc1cc(C)c(S(=O)(=O)c2ccccc2F)cc1C [Example I-017, N-ethyl-N'-[4-(2-fluorophenyl)sulfonyl-2,5-dimethylphenyl]-N-methylmethanimidamide]",1.07
7,"CCN(C)C=Nc1cc(C)c(S(=O)(=O)c2ccccc2Cl)cc1Cl [Example I-018, N'-[2-chloro-4-(2-chlorophenyl)sulfonyl-5-methylphenyl]-N-ethyl-N-methylmethanimidamide]",2.02
8,"CCN(C)C=Nc1cc(C)c(S(=O)(=O)c2ccccc2F)cc1Cl [Example I-019, N'-[2-chloro-4-(2-fluorophenyl)sulfonyl-5-methylphenyl]-N-ethyl-N-methylmethanimidamide]",1.84
9,"CCN(C)C=Nc1cc(F)c(S(=O)(=O)c2ccccc2C)cc1C [Example I-028, N-ethyl-N'-[5-fluoro-2-methyl-4-(2-methylphenyl)sulfonylphenyl]-N-methylmethanimidamide]",1.42
10,"CCN(C)C=Nc1cc(Cl)c(S(=O)(=O)c2ccccc2C)cc1C [Example I-034, N'-[5-chloro-2-methyl-4-(2-methylphenyl)sulfonylphenyl]-N-ethyl-N-methylmethanimidamide]",1.5
11,"CCN(C)C=Nc1cc(Cl)c(S(=O)(=O)c2ccccc2)cc1C [Example I-048, N'-[4-(benzenesulfonyl)-5-chloro-2-methylphenyl]-N-ethyl-N-methylmethanimidamide]",1.31
12,"CCN(C)C=Nc1cc(C)c(S(=O)(=O)c2ccccc2C#N)cc1C [Example I-049, N'-[4-(2-cyanophenyl)sulfonyl-2,5-dimethylphenyl]-N-ethyl-N-methylmethanimidamide]",1
13,"CCN(C)C=Nc1cc(Cl)c(S(=O)(=O)c2ccccc2C#N)cc1C [Example I-053, N'-[5-chloro-4-(2-cyanophenyl)sulfonyl-2-methylphenyl]-N-ethyl-N-methylmethanimidamide]",1.31
14,"CCN(C)C=Nc1cc(C#N)c(S(=O)(=O)c2ccccc2)cc1C [Example I-055, N'-[4-(benzenesulfonyl)-5-cyano-2-methylphenyl]-N-ethyl-N-methylmethanimidamide]",1.53
15,"CCN(C)C=Nc1cc(C#N)c(S(=O)(=O)c2ccccc2C)cc1C [Example I-059, N'-[5-cyano-2-methyl-4-(2-methylphenyl)sulfonylphenyl]-N-ethyl-N-methylmethanimidamide]",1.8
16,"CCN(C)C=Nc1cc(C#N)c(S(=O)(=O)c2ccccc2Cl)cc1C [Example I-062, N'-[4-(2-chlorophenyl)sulfonyl-5-cyano-2-methylphenyl]-N-ethyl-N-methylmethanimidamide]",1.84
17,"CCN(C)C=Nc1cc(C)c([S+]([O-])c2ccccc2C)cc1Br (centres unmarked) [Example I-063, N'-[2-bromo-5-methyl-4-(2-methylphenyl)sulfinylphenyl]-N-ethyl-N-methylmethanimidamide]",1.15

# Other lines, results leading:
row,chromatographic logP,Structure (SMILES)
1,0.97,"CCN(C)C=Nc1cc(C)c([S+]([O-])c2ccccc2Cl)cc1C (centres unmarked) [Example I-010, N'-[4-(2-chlorophenyl)sulfinyl-2,5-dimethylphenyl]-N-ethyl-N-methylmethanimidamide]"
2,0.94,"CCN(C)C=Nc1cc(C)c([S+]([O-])c2ccccc2F)cc1Cl (centres unmarked) [Example I-014, N'-[2-chloro-4-(2-fluorophenyl)sulfinyl-5-methylphenyl]-N-ethyl-N-methylmethanimidamide]"
3,1.18,"CCN(C)C=Nc1cc(F)c(S(=O)(=O)c2ccccc2)cc1C [Example I-027, N'-[4-(benzenesulfonyl)-5-fluoro-2-methylphenyl]-N-ethyl-N-methylmethanimidamide]"
4,1.45,"CCN(C)C=Nc1cc(F)c(S(=O)(=O)c2ccccc2Cl)cc1C [Example I-029, N'-[4-(2-chlorophenyl)sulfonyl-5-fluoro-2-methylphenyl]-N-ethyl-N-methylmethanimidamide]"
5,1.03,"CCN(C)C=Nc1cc(Cl)c([S+]([O-])c2ccccc2F)cc1C (centres unmarked) [Example I-030, N'-[5-chloro-4-(2-fluorophenyl)sulfinyl-2-methylphenyl]-N-ethyl-N-methylmethanimidamide]"
6,0.78,"CCN(C)C=Nc1cc(F)c([S+]([O-])c2ccccc2)cc1C (centres unmarked) [Example I-031, N'-[4-(benzenesulfinyl)-5-fluoro-2-methylphenyl]-N-ethyl-N-methylmethanimidamide]"
7,1,"CCN(C)C=Nc1cc(F)c([S+]([O-])c2ccccc2C)cc1C (centres unmarked) [Example I-032, N-ethyl-N'-[5-fluoro-2-methyl-4-(2-methylphenyl)sulfinylphenyl]-N-methylmethanimidamide]"
8,1.12,"CCN(C)C=Nc1cc(F)c([S+]([O-])c2ccccc2Cl)cc1C (centres unmarked) [Example I-033, N'-[4-(2-chlorophenyl)sulfinyl-5-fluoro-2-methylphenyl]-N-ethyl-N-methylmethanimidamide]"
9,1.12,"CCN(C)C=Nc1cc(Br)c([S+]([O-])c2ccccc2C)cc1C (centres unmarked) [Example I-035, N'-[5-bromo-2-methyl-4-(2-methylphenyl)sulfinylphenyl]-N-ethyl-N-methylmethanimidamide]"
10,1.26,"CCN(C)C=Nc1cc(Br)c([S+]([O-])c2ccccc2Cl)cc1C (centres unmarked) [Example I-036, N'-[5-bromo-4-(2-chlorophenyl)sulfinyl-2-methylphenyl]-N-ethyl-N-methylmethanimidamide]"
11,1.1,"CCN(C)C=Nc1cc(Cl)c([S+]([O-])c2ccccc2C)cc1C (centres unmarked) [Example I-037, N'-[5-chloro-2-methyl-4-(2-methylphenyl)sulfinylphenyl]-N-ethyl-N-methylmethanimidamide]"
12,1,"CCN(C)C=Nc1cc(Br)c([S+]([O-])c2ccccc2)cc1C (centres unmarked) [Example I-038, N'-[4-(benzenesulfinyl)-5-bromo-2-methylphenyl]-N-ethyl-N-methylmethanimidamide]"
13,1.23,"CCN(C)C=Nc1cc(Cl)c([S+]([O-])c2ccccc2Cl)cc1C (centres unmarked) [Example I-040, N'-[5-chloro-4-(2-chlorophenyl)sulfinyl-2-methylphenyl]-N-ethyl-N-methylmethanimidamide]"
14,1.1,"CCN(C)C=Nc1cc(Br)c([S+]([O-])c2ccccc2F)cc1C (centres unmarked) [Example I-043, N'-[5-bromo-4-(2-fluorophenyl)sulfinyl-2-methylphenyl]-N-ethyl-N-methylmethanimidamide]"
15,0.97,"CCN(C)C=Nc1cc(Cl)c([S+]([O-])c2ccccc2)cc1C (centres unmarked) [Example I-050, N'-[4-(benzenesulfinyl)-5-chloro-2-methylphenyl]-N-ethyl-N-methylmethanimidamide]"
16,0.87,"CCN(C)C=Nc1cc(Cl)c([S+]([O-])c2ccccc2C#N)cc1C (centres unmarked) [Example I-051, N'-[5-chloro-4-(2-cyanophenyl)sulfinyl-2-methylphenyl]-N-ethyl-N-methylmethanimidamide]"
17,0.87,"CCN(C)C=Nc1cc(C#N)c([S+]([O-])c2ccccc2)cc1C (centres unmarked) [Example I-056, N'-[4-(benzenesulfinyl)-5-cyano-2-methylphenyl]-N-ethyl-N-methylmethanimidamide]"
18,1.28,"CCN(C)C=Nc1cc(C#N)c([S+]([O-])c2ccccc2C)cc1C (centres unmarked) [Example I-057, N'-[5-cyano-2-methyl-4-(2-methylphenyl)sulfinylphenyl]-N-ethyl-N-methylmethanimidamide]"
19,1.27,"CCN(C)C=Nc1cc(C#N)c([S+]([O-])c2ccccc2Cl)cc1C (centres unmarked) [Example I-061, N'-[4-(2-chlorophenyl)sulfinyl-5-cyano-2-methylphenyl]-N-ethyl-N-methylmethanimidamide]"
20,0.93,"CCN(C)C=Nc1cc(Br)c([S+]([O-])c2ccccc2C#N)cc1C (centres unmarked) [Example I-064, N'-[5-bromo-4-(2-cyanophenyl)sulfinyl-2-methylphenyl]-N-ethyl-N-methylmethanimidamide]"
